# Data as given in patent publication US20140073691A1, “Methods and composition for Treating Thyroid Hormone Related Disorders” (Zafgen, Inc., priority 2010, published 2014).
# Test system: plasma thyroid stimulating hormone (TSH)
# Assay: Administration of MetAP-2 inhibitor to obese subjects: plasma TSH and circulating thyroid hormones
# Assay type: in vivo, human (obese subjects)
# Protocol: FIG. 1 depicts the results of administration of a MetAP2 inhibitor to obese patients and indicates the reduction in plasma thyroid stimulating hormone, without reductions in circulating thyroid hormone (free T3 and T4) concentrations.
# 8 obese subjects who were not taking any thyroid medication were treated with O-(4-dimethylaminoethoxycinnamoyl)fumagillol at a dose of 0.9 mg per square meter of body surface area (approximately 1.8 mg per dose) for 26 days. […] (FIG. 1). This is indicative of improved thyroid hormone sensitivity and a reduction in thyroid hormone resistance.
smiles,measurement,setting,value
CO[C@@H]1[C@H](OC(=O)C=Cc2ccc(OCCN(C)C)cc2)CC[C@]2(CO2)[C@H]1[C@@]1(C)O[C@@H]1CC=C(C)C [O-(4-dimethylaminoethoxycinnamoyl)fumagillol],plasma thyroid stimulating hormone (TSH),"8 obese subjects not taking thyroid medication, 0.9 mg per square meter of body surface area (approximately 1.8 mg per dose) for 26 days",significant reduction
same,circulating thyroid hormone T4,"8 obese subjects, 0.9 mg per square meter of body surface area for 26 days, T4 (FIG. 1)",without a reduction
same,circulating thyroid hormone T3,"8 obese subjects, 0.9 mg per square meter of body surface area for 26 days, free T3 (FIG. 1)",without a reduction
